Measurements: US5073540A, “Composite binding site drugs” (Receptron, priority 1989, dated 1991)
Where a SMILES comes first, the peptide text is derived from it.

Columns and labels:
purified human IR = biological target: T1, purified human IR (Homo sapiens, UniProt P06213); assay: IR autophosphorylation (tyrosine kinase activity of purified insulin receptor); assay type: biochemical; conditions: for EC50: insulin-induced, 95% confidence intervals printed: K^k 2.2-7.2 μM, D^k 0.3-2.2 μM; for inhibition of basal activity of IR: no insulin added
T1 construct: from tissue; host or cells: human placenta
Description: When peptide was used, it was added in 5.0 μl, the volume adjusted to 20 μl by adding buffer, and the mixture incubated (1 hr, 4° C.). After incubation, 10 μl of a solution containing 2.5 μCi ^32 P-labeled ATP (3,000 Ci/mmol; γ-labeled; Amersham), 50 mM HEPES, pH 7.6, 150 mM NaCl, 0.1% Triton X-100, 37.5 μM unlabeled ATP, 15 mM MgCl2, and 6 MnCl2 was added to a final volume of 30 μl. The mixture was then incubated for 30 min. at 24° C.
After incubation, 15 μl sample buffer was added, and the sample was boiled for 5 min., and run on 10% SDS-PAGE overnight. The gel was dried, and autoradiograms processed with an exposure time of 5-10 hr. For quantitative estimates the β-subunit band of IR and the IRKD bands were cut out and counted dry (Cerenkov) in a scintillation counter.

[1] = Peptide depletion (degradation or adsorption) during the experimental period, by HPLC and 125I-label; assay type: physicochemical; conditions: HPLC and 125I-labeled peptide; concentrations above 0.1 μM

T1 sequence (P06213 28-758 limits assumed): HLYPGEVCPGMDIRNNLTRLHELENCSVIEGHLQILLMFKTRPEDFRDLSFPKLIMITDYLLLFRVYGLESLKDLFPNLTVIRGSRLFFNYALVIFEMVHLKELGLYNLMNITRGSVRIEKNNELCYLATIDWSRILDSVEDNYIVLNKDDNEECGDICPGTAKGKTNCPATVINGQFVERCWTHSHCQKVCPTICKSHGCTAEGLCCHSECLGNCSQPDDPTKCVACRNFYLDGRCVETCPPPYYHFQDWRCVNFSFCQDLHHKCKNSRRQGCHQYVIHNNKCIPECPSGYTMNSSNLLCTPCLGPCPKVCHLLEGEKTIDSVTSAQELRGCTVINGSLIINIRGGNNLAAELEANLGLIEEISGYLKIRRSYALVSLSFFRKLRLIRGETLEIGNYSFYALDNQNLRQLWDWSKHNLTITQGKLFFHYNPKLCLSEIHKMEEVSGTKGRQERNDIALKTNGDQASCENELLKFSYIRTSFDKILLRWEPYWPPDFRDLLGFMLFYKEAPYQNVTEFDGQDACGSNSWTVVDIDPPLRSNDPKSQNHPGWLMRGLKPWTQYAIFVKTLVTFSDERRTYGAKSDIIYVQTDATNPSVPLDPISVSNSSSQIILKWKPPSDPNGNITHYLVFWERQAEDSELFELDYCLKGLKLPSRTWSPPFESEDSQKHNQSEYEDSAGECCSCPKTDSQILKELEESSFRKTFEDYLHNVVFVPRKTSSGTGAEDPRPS
T1 sequence (P06213 763-1382 limits assumed): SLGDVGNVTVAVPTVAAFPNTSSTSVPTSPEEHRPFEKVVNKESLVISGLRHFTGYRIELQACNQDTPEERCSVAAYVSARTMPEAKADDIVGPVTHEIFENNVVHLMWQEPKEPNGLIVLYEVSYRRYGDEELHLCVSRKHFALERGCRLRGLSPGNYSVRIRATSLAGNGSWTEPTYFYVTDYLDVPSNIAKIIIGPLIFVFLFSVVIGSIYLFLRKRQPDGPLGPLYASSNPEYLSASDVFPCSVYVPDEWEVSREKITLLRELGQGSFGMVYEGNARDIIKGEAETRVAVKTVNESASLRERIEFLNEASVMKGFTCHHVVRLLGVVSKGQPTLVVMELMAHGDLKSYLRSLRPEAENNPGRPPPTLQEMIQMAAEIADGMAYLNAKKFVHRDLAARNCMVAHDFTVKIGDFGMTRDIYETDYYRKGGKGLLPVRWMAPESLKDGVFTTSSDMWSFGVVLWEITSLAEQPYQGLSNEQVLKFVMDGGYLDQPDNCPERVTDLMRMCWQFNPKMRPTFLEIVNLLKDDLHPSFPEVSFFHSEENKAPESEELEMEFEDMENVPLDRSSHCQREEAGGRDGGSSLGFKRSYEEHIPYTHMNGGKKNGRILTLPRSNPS

Row | Compound | EC50 (purified human IR) [nM] | inhibition of basal activity of IR (purified human IR) | depletion (degradation or adsorption) during the experimental period [1]
1 | CC[C@H](C)[C@H](NC(=O)[C@H](CCC(N)=O)NC(=O)[C@@H](NC(=O)[C@H](CCC(=O)O)NC(=O)[C@H](CCCNC(=N)N)NC(=O)[C@@H](N)CCC(=O)O)[C@@H](C)O)C(=O)N[C@@H](C)C(=O)N[C@@H](CCCCN)C(=O)NCC(=O)N[C@@H](CC(N)=O)C(=O)N[C@@H](CCC(=O)O)C(=O)N[C@@H](CCC(N)=O)C(=O)N[C@@H](CO)C(=O)N[C@@H](Cc1ccccc1)C(=O)N[C@@H](CCCNC(=N)N)C(=O)N[C@H](C(=O)N[C@@H](CC(=O)O)C(=O)N[C@@H](CC(C)C)C(=O)N[C@@H](CCCNC(=N)N)C(=O)N[C@H](C(=O)N[C@@H](CC(C)C)C(=O)N[C@@H](CC(C)C)C(=O)N[C@@H](CCCNC(=N)N)C(=O)N[C@@H](Cc1ccc(O)cc1)C(=O)N[C@@H](Cc1ccc(O)cc1)C(=O)O)[C@@H](C)O)C(C)C [D^k-(61-85), ERETQIAKGNEQSFRVDLRTLLRYY] (H-ERETQIAKGNEQSFRVDLRTLLRYY-OH) | 1200 | 24-40% | 
2 | CC[C@H](C)[C@H](NC(=O)[C@H](CCC(N)=O)NC(=O)[C@@H](NC(=O)[C@H](CC(N)=O)NC(=O)[C@H](CCCNC(=N)N)NC(=O)[C@@H](N)CCC(=O)O)[C@@H](C)O)C(=O)N[C@@H](C)C(=O)N[C@@H](CCCCN)C(=O)NCC(=O)N[C@@H](CC(N)=O)C(=O)N[C@@H](CCC(=O)O)C(=O)N[C@@H](CCC(N)=O)C(=O)N[C@H](C(=O)N[C@@H](Cc1ccccc1)C(=O)N[C@@H](CCCNC(=N)N)C(=O)N[C@H](C(=O)N[C@@H](CC(N)=O)C(=O)N[C@@H](CC(C)C)C(=O)N[C@@H](CCCNC(=N)N)C(=O)N[C@H](C(=O)N[C@@H](C)C(=O)N[C@@H](CC(C)C)C(=O)N[C@@H](CCCNC(=N)N)C(=O)N[C@@H](Cc1ccc(O)cc1)C(=O)N[C@@H](Cc1ccc(O)cc1)C(=O)O)[C@@H](C)O)C(C)C)[C@@H](C)CC [K^k-(61-85)] (H-ERNTQIAKGNEQIFRVNLRTALRYY-OH) | 4000 | 24-40% | 
3 | dynorphin A |  |  | No significant depletion
